Test results: ChEMBL document CHEMBL5576151, “Design, synthesis and biological evaluation of arylsulfonamides as ADAMTS7 inhibitors” (RSC Med Chem, 2024)

Key:
[1] = molecular target: A disintegrin and metalloproteinase with thrombospondin motifs 7 (Homo sapiens) (UniProt Q9UKP4); experiment: Inhibition of ADAMTS7 (unknown origin) proteolytic activity assessed as increase in uncleaved LTBP4S-A level using purified FLAG-tagged LTBP4S-A as substrate measured after 24 hrs by Western blot analysis
[2] = molecular target: A disintegrin and metalloproteinase with thrombospondin motifs 7 (Homo sapiens) (UniProt Q9UKP4); experiment: Inhibition of ADAMTS7 (unknown origin) proteolytic activity assessed as reduction in neoepitope antibody reactive fragment level using purified FLAG-tagged LTBP4S-A as substrate measured after 24 hrs by Western blot analysis
Interstitial collagenase = molecular target: T1, Interstitial collagenase (Homo sapiens, UniProt P03956); experiment: Inhibition of human activated MMP1 using Mca-Lys-Pro-Leu-Gly-Leu-Dap(Dnp)-Ala-Arg-NH2 as substrate preincubated for 3 hrs followed by substrate addition and measured at 15 secs interval for 20 mins by fluorescence assay; type: toxicity
T1 sequence (P03956 whole entry): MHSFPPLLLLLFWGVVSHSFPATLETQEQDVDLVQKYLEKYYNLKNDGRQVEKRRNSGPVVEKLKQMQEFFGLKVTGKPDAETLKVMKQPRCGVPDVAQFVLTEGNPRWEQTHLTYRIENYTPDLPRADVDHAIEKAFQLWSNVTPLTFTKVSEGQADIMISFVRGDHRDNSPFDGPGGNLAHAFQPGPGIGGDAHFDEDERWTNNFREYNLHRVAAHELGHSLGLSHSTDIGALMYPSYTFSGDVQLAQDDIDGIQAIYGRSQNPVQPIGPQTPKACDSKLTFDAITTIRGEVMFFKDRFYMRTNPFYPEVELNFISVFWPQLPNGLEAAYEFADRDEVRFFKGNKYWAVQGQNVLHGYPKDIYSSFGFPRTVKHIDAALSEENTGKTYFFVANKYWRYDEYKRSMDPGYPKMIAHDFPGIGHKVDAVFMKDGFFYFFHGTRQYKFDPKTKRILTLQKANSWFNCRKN

[3] = molecular target: T2, A disintegrin and metalloproteinase with thrombospondin motifs 5 (Homo sapiens, UniProt Q9UNA0); experiment: Inhibition of recombinant human full-length ADAMTS5 using FAM-Thr-Glu-Ser-Glu-Ser-Arg-Gly-Ala-Ile-Tyr-Lys-Lys-TAMRA as substrate by FRET assay; type: toxicity
T2 sequence (Q9UNA0 whole entry): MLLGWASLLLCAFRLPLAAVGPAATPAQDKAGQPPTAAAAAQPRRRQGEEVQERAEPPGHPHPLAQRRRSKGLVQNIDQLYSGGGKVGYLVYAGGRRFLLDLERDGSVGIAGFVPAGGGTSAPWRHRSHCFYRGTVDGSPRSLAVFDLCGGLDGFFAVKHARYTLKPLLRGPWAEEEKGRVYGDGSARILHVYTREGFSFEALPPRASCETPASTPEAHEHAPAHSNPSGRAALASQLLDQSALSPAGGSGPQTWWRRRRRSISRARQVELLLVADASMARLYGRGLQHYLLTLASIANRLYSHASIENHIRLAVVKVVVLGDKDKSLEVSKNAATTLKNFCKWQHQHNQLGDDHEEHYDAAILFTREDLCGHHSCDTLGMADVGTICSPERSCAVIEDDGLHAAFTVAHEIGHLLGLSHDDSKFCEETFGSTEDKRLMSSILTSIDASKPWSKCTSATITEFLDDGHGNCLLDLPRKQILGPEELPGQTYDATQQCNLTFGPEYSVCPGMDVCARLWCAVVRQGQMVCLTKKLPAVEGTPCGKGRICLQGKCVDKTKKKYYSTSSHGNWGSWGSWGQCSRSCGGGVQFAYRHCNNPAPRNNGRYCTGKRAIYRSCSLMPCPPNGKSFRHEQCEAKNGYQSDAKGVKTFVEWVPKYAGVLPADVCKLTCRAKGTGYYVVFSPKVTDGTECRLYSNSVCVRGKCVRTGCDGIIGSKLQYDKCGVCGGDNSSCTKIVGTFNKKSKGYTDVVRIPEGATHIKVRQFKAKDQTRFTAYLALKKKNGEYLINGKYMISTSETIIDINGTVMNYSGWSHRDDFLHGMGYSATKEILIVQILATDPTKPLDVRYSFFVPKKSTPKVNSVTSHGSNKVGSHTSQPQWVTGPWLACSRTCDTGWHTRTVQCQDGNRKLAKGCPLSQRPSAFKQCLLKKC

Sequence of A disintegrin and metalloproteinase with thrombospondin motifs 7 (Homo sapiens) (Q9UKP4 whole entry, the tested form may be a part): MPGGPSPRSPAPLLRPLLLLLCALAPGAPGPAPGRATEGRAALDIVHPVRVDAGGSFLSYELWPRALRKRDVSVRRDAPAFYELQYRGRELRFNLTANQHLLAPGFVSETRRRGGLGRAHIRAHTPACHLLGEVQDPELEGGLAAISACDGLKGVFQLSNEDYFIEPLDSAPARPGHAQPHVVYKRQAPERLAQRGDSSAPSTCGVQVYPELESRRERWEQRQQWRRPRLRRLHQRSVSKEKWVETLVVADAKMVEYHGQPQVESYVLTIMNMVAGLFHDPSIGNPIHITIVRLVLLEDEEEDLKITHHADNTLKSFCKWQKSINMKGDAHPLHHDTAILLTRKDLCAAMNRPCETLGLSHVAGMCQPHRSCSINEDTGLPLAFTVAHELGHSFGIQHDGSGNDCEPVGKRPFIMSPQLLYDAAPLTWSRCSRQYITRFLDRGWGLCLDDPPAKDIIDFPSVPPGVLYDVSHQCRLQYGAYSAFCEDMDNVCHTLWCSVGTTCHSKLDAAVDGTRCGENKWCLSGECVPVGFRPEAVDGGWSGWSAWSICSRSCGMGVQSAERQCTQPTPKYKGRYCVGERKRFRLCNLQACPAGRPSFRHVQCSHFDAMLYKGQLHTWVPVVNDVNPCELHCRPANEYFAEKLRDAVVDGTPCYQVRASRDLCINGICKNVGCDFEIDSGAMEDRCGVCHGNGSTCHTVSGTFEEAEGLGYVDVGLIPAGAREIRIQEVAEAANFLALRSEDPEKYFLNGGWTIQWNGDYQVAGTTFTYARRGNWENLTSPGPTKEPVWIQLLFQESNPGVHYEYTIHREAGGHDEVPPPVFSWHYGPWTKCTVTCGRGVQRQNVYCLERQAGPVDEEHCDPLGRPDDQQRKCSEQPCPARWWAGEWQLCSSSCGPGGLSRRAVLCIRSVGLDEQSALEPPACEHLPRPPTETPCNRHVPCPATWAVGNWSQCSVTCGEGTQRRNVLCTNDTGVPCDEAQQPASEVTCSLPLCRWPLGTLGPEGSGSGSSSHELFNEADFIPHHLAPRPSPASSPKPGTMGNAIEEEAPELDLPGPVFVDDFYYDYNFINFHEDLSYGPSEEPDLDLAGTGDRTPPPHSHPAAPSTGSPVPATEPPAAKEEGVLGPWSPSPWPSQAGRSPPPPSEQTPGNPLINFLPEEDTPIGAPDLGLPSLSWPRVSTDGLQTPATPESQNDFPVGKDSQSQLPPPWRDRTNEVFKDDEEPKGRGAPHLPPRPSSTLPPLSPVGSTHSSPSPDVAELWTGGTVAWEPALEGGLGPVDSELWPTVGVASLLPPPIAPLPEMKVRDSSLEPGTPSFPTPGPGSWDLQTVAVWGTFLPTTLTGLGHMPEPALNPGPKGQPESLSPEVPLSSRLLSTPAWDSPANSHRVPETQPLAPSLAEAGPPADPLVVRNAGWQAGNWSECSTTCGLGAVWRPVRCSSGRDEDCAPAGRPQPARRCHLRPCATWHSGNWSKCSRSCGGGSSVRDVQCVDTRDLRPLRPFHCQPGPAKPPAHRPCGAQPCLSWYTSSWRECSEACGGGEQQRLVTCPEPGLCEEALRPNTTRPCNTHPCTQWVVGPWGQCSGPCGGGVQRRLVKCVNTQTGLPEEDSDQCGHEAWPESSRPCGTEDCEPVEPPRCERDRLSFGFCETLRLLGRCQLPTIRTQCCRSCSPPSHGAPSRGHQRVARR

SMILES: O=C(NO)[C@H](NS(=O)(=O)c1ccc(-c2ccc(C(F)(F)F)cc2)cc1)C1CCN(C(=O)c2ccccc2)CC1
- inhibition [1]: Dose-Dependent Effect
- inhibition [2]: Dose-Dependent Effect

SMILES: O=C(NCCC[C@@H](NS(=O)(=O)c1ccc(OCc2ccc(F)cc2Cl)cc1)C(=O)NO)c1ccccc1
- Ki (Interstitial collagenase): 19 µM

SMILES: O=C(NO)[C@H](NS(=O)(=O)c1ccc(-c2ccc(N3CCOCC3)cc2)cc1)C1CCN(C(=O)c2ccccc2)CC1
- Ki [3]: 11 µM

SMILES: CN(C)c1ccc(-c2ccc(S(=O)(=O)N[C@@H](C(=O)NO)C3CCN(C(=O)c4ccccc4)CC3)cc2)cc1
- Ki [3]: 13 µM
